Test results from patent US20060100226A1, “2-Thiopyrimidinones as therapeutic agents” (priority 2004, published 2006).

Experiments:
[1] = target: T1, murine MEKK2 (mMEKK2) (Mus musculus, UniProt Q61083); assay: MEKK2 PhosphoELISA (mMEKK2/MKK4); format: biochemical; conditions: substrate MKK4/SKK1 (unactive), ATP final 10 μM, O.D. 450 nm
T1 sequence (Q61083 1-619): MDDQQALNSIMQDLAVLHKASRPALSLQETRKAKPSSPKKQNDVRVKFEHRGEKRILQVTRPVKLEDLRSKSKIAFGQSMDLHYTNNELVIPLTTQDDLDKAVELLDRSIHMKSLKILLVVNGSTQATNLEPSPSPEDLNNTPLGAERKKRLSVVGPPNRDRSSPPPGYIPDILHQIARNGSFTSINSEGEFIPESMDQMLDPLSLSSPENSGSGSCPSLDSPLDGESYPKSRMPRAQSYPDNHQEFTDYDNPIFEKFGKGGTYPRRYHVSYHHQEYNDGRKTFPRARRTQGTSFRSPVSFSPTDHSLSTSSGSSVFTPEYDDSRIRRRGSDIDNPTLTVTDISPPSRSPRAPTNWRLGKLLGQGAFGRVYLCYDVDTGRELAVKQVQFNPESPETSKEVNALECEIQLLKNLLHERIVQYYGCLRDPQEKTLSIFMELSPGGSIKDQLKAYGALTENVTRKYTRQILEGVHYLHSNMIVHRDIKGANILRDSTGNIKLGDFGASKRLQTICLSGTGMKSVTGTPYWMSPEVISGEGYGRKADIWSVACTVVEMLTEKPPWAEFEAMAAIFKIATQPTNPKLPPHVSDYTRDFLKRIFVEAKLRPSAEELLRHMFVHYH
From the text: Another useful method for assessing protein kinase inhibition, and specifically MEKK2 inhibition, of compounds of the invention involves the MEKK2 phospho-antibody enzyme-linked immunosorbent assay (PhosphoELISA). This screening panel, which involves relatively few steps, is a useful indicator of potential inhibitors of MEKK2. Reactions to murine MEKK2 are observed as optical density measurements at an absorbance of 450 nm. Inhibitory activities can be expressed in terms of IC50, where IC50 is the molar concentration of compound required to inhibit protein kinase binding by 50%.
A phospho-antibody enzyme-linked immunosorbent assay (PhosphoELISA) was used to screen potential inhibitors of MEKK2. The assay was performed as follows: Compounds to be tested were weighed and solubilized in DMSO (Sigma) to a stock concentration of 10 mM. Serial dilutions starting from 1 mM were prepared with additional DMSO. These dilutions were further diluted to 250 μM in kinase reaction buffer [20 mM Hepes pH 7.5, 5 mM MgCl2, 1 mM DTT (Dithiothreitol-Sigma), 1 mM NaVO4 (sodium vanadate- Sigma). A 25 μl aliquot of this solution was transferred to a glutathione coated 96-well microplate (Pierce). A stock aliquot containing 50-125 ng of murine MEKK2 (mMEKK2) was added to each well and incubated on the microplate for 10 minutes at room temperature. A 25 μl solution of MKK4/SKK1 (unactive) was diluted 1:200 in kinase assay buffer and added to the reaction plate followed by 50 μl of 25 μM ATP (adenosine triphosphate) to afford a final well concentration of 10 μM. The reaction was allowed to proceed for 60 minutes at room temperature before washing 3 times with wash buffer [100 mM phosphate pH 7.5, 0.05% TWEEN 20 (Sigma)]. A solution of anti-phospho MKK4/SEK1 antibody (Calbiochem) and biotin anti rabbit IgG (Jackson Immunoresearch) was diluted 1:2500 in kinase reaction buffer and added to the appropriate wells. The reaction was incubated for 60 minutes at room temperature. The microplate was washed 3 times with wash buffer and 100 ul of streptavidin horseradish peroxidase (HRP-Pierce) was added and incubated for 30 minutes at room temperature. The microplate was washed 3 times with wash buffer and 100 μl of TMB (3,3′,5,5′-tetramethylbenzidine-Sigma) was added. The assay was allowed to develop for 15-20 minutes then the reaction was stopped with the addition of 100 μl of 0.2 N sulfuric acid. The optical density (O.D.) of the plate was read on the Victor™ plate reader using the absorbance at 450 nm.

[2] = target: T1, murine MEKK2 (mMEKK2); assay: TR-FRET kinase assay (mMEKK2/MBP); format: biochemical; conditions: substrate biotin MBP, 60 minutes at room temperature
In short: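 mMEKK2 was preincubated 10 min with compound in pH 7.5 Hepes/MgCl2/DTT/vanadate buffer, then biotin-MBP, anti-phospho-MBP antibody and ATP (5 uM solution added) were added and the reaction ran 60 min at room temperature. After EDTA stop, europium anti-mouse IgG and Cy5-streptavidin were added and TR-FRET was read at 615/665 nm.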

Compound | IC50 [1] [µM] | IC50 [2] [µM]
COc1cccc(-c2nc(SCc3cccc(NCc4ccc(Cl)c(Cl)c4)c3)[nH]c(=O)c2C#N)c1 [Example 1a, 2-[3-(3,4-Dichloro-benzylamino)-benzylsulfanyl]-4-(3-methoxy-phenyl)-6-oxo-1,6-dihydro-pyrimidine-5-carbonitrile] | < 1 | < 1
COc1ccc(-c2nc(SCc3cccc(NCc4ccc(Cl)c(Cl)c4)c3)[nH]c(=O)c2C#N)cc1OC [Example 1b, 2-[3-(3,4-Dichloro-benzylamino)-benzylsulfanyl]-4-(3,4-dimethoxy-phenyl)-6-oxo-1,6-dihydro-pyrimidine-5-carbonitrile] | < 1 | < 5
COc1ccc(-c2nc(SCc3cccc(NCc4ccc(Cl)c(Cl)c4)c3)[nH]c(=O)c2C#N)cc1-c1cccs1 [Example 1c] | < 1 | < 5
COc1cccc(-c2nc(SCc3cccc(NCc4cccc(Oc5ccc(Cl)cc5)c4)c3)[nH]c(=O)c2C#N)c1 [Example 1cc] | < 1 | < 1
COc1cccc(-c2nc(SCc3cccc(NCc4ccccc4)c3)[nH]c(=O)c2C#N)c1 [Example 1d] | < 5 | < 5
COc1cccc(-c2nc(SCc3cccc(NCc4ccc5cccc(O)c5n4)c3)[nH]c(=O)c2C#N)c1 [Example 1v] | < 1 | < 1
N#Cc1c(-c2ccccc2-c2cc3ccccc3s2)nc(SCc2cccc(NC(=O)c3ccc(Cl)c(Cl)c3)c2)[nH]c1=O [Example 2bb, N-{3-[4-(2-Benzo[b]thiophen-2-yl-phenyl)-5-cyano-6-oxo-1,6-dihydro-pyrimidin-2-ylsulfanylmethyl]-phenyl}-3,4-dichloro-benzamide] | < 1 | < 5
N#Cc1c(-c2ccccc2OC(F)(F)F)nc(SCc2cccc(NC(=O)c3ccc(Cl)c(Cl)c3)c2)[nH]c1=O [Example 2dd, 3,4-Dichloro-N-{3-[5-cyano-6-oxo-4-(2-trifluoromethoxy-phenyl)-1,6-dihydro-pyrimidin-2-ylsulfanylmethyl]-phenyl}-benzamide] | < 5 | < 5
N#Cc1c(-c2ccccc2C(F)(F)F)nc(SCc2cccc(NC(=O)c3ccc(Cl)c(Cl)c3)c2)[nH]c1=O [Example 2ee, 3,4-Dichloro-N-{3-[5-cyano-6-oxo-4-(2-trifluoromethyl-phenyl)-1,6-dihydro-pyrimidin-2-ylsulfanylmethyl]-phenyl}-benzamide] | < 1 | < 10
N#Cc1c(-c2ccc(C(F)(F)F)cc2)nc(SCc2cccc(NC(=O)c3ccc(Cl)c(Cl)c3)c2)[nH]c1=O [Example 2ff, 3,4-Dichloro-N-{3-[5-cyano-6-oxo-4-(4-trifluoromethyl-phenyl)-1,6-dihydro-pyrimidin-2-ylsulfanylmethyl]-phenyl}-benzamide] | < 5 | < 5
N#Cc1c(-c2cccc(C(F)(F)F)c2)nc(SCc2cccc(NC(=O)c3ccc(Cl)c(Cl)c3)c2)[nH]c1=O [Example 2gg, 3,4-Dichloro-N-{3-[5-cyano-6-oxo-4-(3-trifluoromethyl-phenyl)-1,6-dihydro-pyrimidin-2-ylsulfanylmethyl]-phenyl}-benzamide] | < 5 | > 40
COc1cccc(-c2nc(SCc3cccc(NC(=O)c4ccc(Cl)c(Cl)c4)c3)[nH]c(=O)c2C#N)c1 [Example 2h] | < 5 | < 5
N#Cc1c(-c2ccc(OC(F)(F)F)cc2)nc(SCc2cccc(NC(=O)c3ccc(Cl)c(Cl)c3)c2)[nH]c1=O [Example 2hh, 3,4-Dichloro-N-{3-[5-cyano-6-oxo-4-(4-trifluoromethoxy-phenyl)-1,6-dihydro-pyrimidin-2-ylsulfanylmethyl]-phenyl}-benzamide] | < 20 | < 40
COc1cccc(-c2nc(SCc3cccc(NC(=O)c4c(-c5ccccc5)noc4C)c3)[nH]c(=O)c2C#N)c1 [Example 2i] | < 10 | < 10
N#Cc1c(-c2cccc([N+](=O)[O-])c2)nc(SCc2cccc(NC(=O)c3ccc(Cl)c(Cl)c3)c2)[nH]c1=O [Example 2ii, 3,4-Dichloro-N-{3-[5-cyano-4-(3-nitro-phenyl)-6-oxo-1,6-dihydro-pyrimidin-2-ylsulfanylmethyl]-phenyl}-benzamide] | < 1 | < 5
COc1ccc(-c2nc(SCc3cccc(NC(=O)c4ccc(Cl)c(Cl)c4)c3)[nH]c(=O)c2C#N)cc1-c1cccs1 [Example 2y, 3,4-Dichloro-N-{3-[5-cyano-4-(4-methoxy-3-thiophen-2-yl-phenyl)-6-oxo-1,6-dihydro-pyrimidin-2-ylsulfanylmethyl]-phenyl}-benzamide] | < 1 | < 5
N#Cc1c(-c2cccc(-c3cc4ccccc4s3)c2)nc(SCc2cccc(NC(=O)c3ccc(Cl)c(Cl)c3)c2)[nH]c1=O [Example 2z, N-{3-[4-(3-Benzo[b]thiophen-2-yl-phenyl)-5-cyano-6-oxo-1,6-dihydro-pyrimidin-2-ylsulfanylmethyl]-phenyl}-3,4-dichloro-benzamide] | < 1 | < 1
COc1cccc(-c2nc(SCCCn3cnc4c(NC(=O)c5ccccc5)ncnc43)[nH]c(=O)c2C#N)c1 [Example 4ee] | > 40 | 
COc1cccc(-c2nc(SCCCn3cnc(NC(=O)c4ccc(Cl)c(Cl)c4)n3)[nH]c(=O)c2C#N)c1 [Example 4ff] | > 40 | 
N#Cc1c(-c2cccc(C(=O)O)c2)nc(SCc2cccc(NC(=O)c3ccc(Cl)c(Cl)c3)c2)[nH]c1=O [Example 4m] | < 20 | 
N#Cc1c(-c2cccc(N)c2)nc(SCc2cccc(NC(=O)c3ccc(Cl)c(Cl)c3)c2)[nH]c1=O [Example 4n] | < 10 | < 10
N#Cc1c(-c2cccc(S(=O)(=O)NCc3ccccc3)c2)nc(SCc2cccc(NC(=O)c3ccc(Cl)c(Cl)c3)c2)[nH]c1=O [Example 4p] | < 5 | 
N#Cc1c(-c2cccc(-n3cccc3)c2)nc(SCc2cccc(NC(=O)c3ccc(Cl)c(Cl)c3)c2)[nH]c1=O [Example 4q] | < 1 | 
N#Cc1c(-c2ccc(-n3ccnc3)cc2)nc(SCc2cccc(NC(=O)c3ccc(Cl)c(Cl)c3)c2)[nH]c1=O [Example 4r] | < 5 | 
N#Cc1c(-c2ccc(-n3cccc3)cc2)nc(SCc2cccc(NC(=O)c3ccc(Cl)c(Cl)c3)c2)[nH]c1=O [Example 4s] | < 1 | 
N#Cc1c(-c2ccc(-n3cccn3)cc2)nc(SCc2cccc(NC(=O)c3ccc(Cl)c(Cl)c3)c2)[nH]c1=O [Example 4t] | < 20 | 
N#Cc1c(-c2cccc(-n3ccnc3)c2)nc(SCc2cccc(NC(=O)c3ccc(Cl)c(Cl)c3)c2)[nH]c1=O [Example 4u] | < 10 | 
N#Cc1c(-c2cccc(N3CCCC3)c2)nc(SCc2cccc(NC(=O)c3ccc(Cl)c(Cl)c3)c2)[nH]c1=O [Example 4w] | < 1 | 
CCOC(=O)C1CCN(c2ccccc2-c2nc(SCc3cccc(NC(=O)c4ccc(Cl)c(Cl)c4)c3)[nH]c(=O)c2C#N)CC1 [Example 4x] | > 40 | 
CCN(CC)CCOc1ccc(-c2nc(SCc3cccc(NC(=O)c4ccc(Cl)c(Cl)c4)c3)[nH]c(=O)c2C#N)cc1 [Example 4z] | > 40 | 
